Experimental findings from patent US20060067938A1, “Methods for the treatment of osteoarthritis and compositions thereof” (priority 2001, published 2006) are described below.

Several values for one entry are separate records, joined by “and”; a condition that tells them apart may be missing. Identical values can stand only once.

Data set [1] concerns PI3K/PKB pathway (phospho-PKB). Description: Western blot of chondrocyte lysates probed with anti-phospho-PKB (activation of PI3K/PKB pathway by PDGF). It counts as cell-based. The following applies: primary human chondrocytes (non-OA joints), two samples. The protocol: (§1) Induction or Inhibition of PI3KI3K/PKB In Cultured Chondrocytes: In all studies described below chondrocytes were cultured in DMEM medium with or without 10% Fetal Bovine Serum (Invitrogen Life Technologies, Carlsbad, Calif.). Cultured chondrocyte cells are incubated overnight in serum free medium (DMEM) and then treated, as one of the following types of samples, 1) control samples, by incubating the cultures for 24 hour in serum free medium (DMEM) 2) induced samples, by incubating the cultures for 24 hours in serum free medium containing the PI3K/PKB inducer PDGF-BB (Invitrogen—Life Technologies Carlsbad, Calif.) or 3) PI3K/PKB inhibited samples, by pre-incubating the samples for 1 hour with the PI3K/PKB inhibitor LY294002 (Sigma, St. Louis, Mo.) and then incubating the cultures for 24 hours in serum free medium (DMEM) containing the PDGF-BB. FIG. 3 depicts activation of PI3K/PKB expression by PDGF in primary human chondrocytes. FIG. 4 depicts LY249002 (2-(4-morpholinyl)-8-phenyl-4H-1-benzopyran-4-one) inhibition of PDGF activated PI3K/PKB expression in primary human chondrocytes.
Western Blotting—Cells are incubated in serum free medium (DMEM) overnight, and then incubated for 10 minutes in fresh serum free media containing PDGF-BB (50 ng/ml)+/−LY294002 (20 μM). Cells are washed in ice cold PBS, scraped and sonicated in ice cold lysis buffer containing 50 mM Tris pH 7.4, 1% NP-40, 0.25% Na deoxycholate, 150 mM NaCl, 1 mM EGTA, 1 mM PMSF, aprotinin, leupeptin, and pepstatin (all at 1 μg/ml 1 mM Na vanadate, 1 mM NaF, and 1 μM microcystin) (Sigma, St Louis, Mo.). The protein concentration of the lysate is determined using the micro bicinchoninic acid assay (Pierce, Rockford, Ill.) and 20 μg lysate is run per lane for phospho-PKB and phospho-forkhead and 5 μg for anti-His antibody [rabbit anti-phospho-PKB-Ser473 NEB, rabbit anti-phospho-FKHRL1-Thr32 NEB, mouse anti penta-His (Qiagen, Valencia, Calif.)]. Peroxidase labeled secondary antibodies are purchased from Jackson Laboratories (Bar, Harbor, Me.). Blots are visualized with ECL reagent (Amersham, Piscataway, N.J.). […]

In data set [2] the test system is PKB pathway (phospho-FKHRL1). Description: Western blot of chondrocyte lysates probed with anti-phospho-FKHRL1. The following applies: PDGF 50 ng/ml alone; primary human chondrocytes (non-OA joints); two samples. In kind it is cell-based. The protocol: as §1, with “FIG. 3 depicts activation of PI3K/PKB expression by PDGF in primary human chondrocytes. FIG. 4 depicts LY249002 (2-(4-morpholinyl)-8-phenyl-4H-1-benzopyran-4-one) inhibition of PDGF activated PI3K/PKB expression in primary human chondrocytes.” left out
Western Blotting—Cells are incubated in serum free medium (DMEM) overnight, and then incubated for 10 minutes in fresh serum free media containing PDGF-BB (50 ng/ml)+/−LY294002 (20 μM). […] The protein concentration of the lysate is determined using the micro bicinchoninic acid assay (Pierce, Rockford, Ill.) and 20 μg lysate is run per lane for phospho-PKB and phospho-forkhead and 5 μg for anti-His antibody [rabbit anti-phospho-PKB-Ser473 NEB, rabbit anti-phospho-FKHRL1-Thr32 NEB, mouse anti penta-His (Qiagen, Valencia, Calif.)]. […]

In data set [3] the test system is Aggrecanase-1 (AGG-1) mRNA. Description: RT-PCR of AGG-1 mRNA in PDGF stimulated primary human chondrocytes. It counts as cell-based. The following applies: primary human chondrocytes (non-OA joints). The protocol:
(§2) cDNA from Isolated Normal and Osteoarthritic Cartilage: A quantity of 1 μg total Isolated Normal or Osteoarthritic Cartilage RNA is treated with DNase (Ambion, Austin, Tex.) in DNase buffer (Ambion, Austin, Tex. in a quantity sufficient to make 10 μl total reaction volume and heated at 37° C. for 30 minutes. The DNase enzyme is inactivated by adding EDTA and heating at 75° C. for 5 min. cDNA is then synthesized from the reaction mixture above using Oligo dT12-18 with the Superscript Preamplification System (Life Technologies, Rockville, Md.). The final reaction volume is then adjusted to 300 μl. Cyclophilin RT-PCR is performed on each sample to allow comparative normalized PI3K, PKB, AGG-1, or COL-3 gene quantitation. Reverse transcriptase polymerase chain reaction (RT-PCR) for cyclophilin is first performed using 3 μl template utilizing the Expand Long PCR System (Roche Biochemicals, Indianapolis, Ind.). Cyclophilin RT-PCR is performed on each sample for 28 cycles to prevent saturation of the PCR products, whereas 35-40 cycles is necessary to detect less abundant genes. Loading dye is added to the 50 μl RT-PCR reaction mix, 10 μl of the dyed RT-PCR reaction mix is loaded onto a 4-20% TBE gradient gel (BioRad, Hercules, Calif.)) and separated at 200V for 45 min. The gel is stained in 1×TBE (Sigma, St. Louis, Mo.) solution containing SYBR green (1:10,000) (Molecular Probes, Eugene, Oreg.) for 1 hour and then scanned on the Storm 860—Blue Fluorescence/Chemifluorescence scanner (Molecular Dynamics, Division of Amersham Pharmacia, Piscataway, N.J.). Individual bands are quantitated using ImageQuant software (Molecular Dynamics, Division of Amersham Pharmacia, Piscataway, N.J.). The fluorescence value determined for each PCR band representing a particular gene is normalized against the fluorescence value for the cyclophilin band in the same donor sample.
(§3) Induction or Inhibition of PI3KI3K/PKB In Cultured Chondrocytes: In all studies described below chondrocytes were cultured in DMEM medium with or without 10% Fetal Bovine Serum (Invitrogen Life Technologies, Carlsbad, Calif.). […]

The test system of data set [4] is Collagenase-3 (COL-3) mRNA. Description: RT-PCR of COL-3 mRNA in PDGF stimulated primary human chondrocytes. In kind it is cell-based. The following applies: primary human chondrocytes (non-OA joints). Here is the method:
as §2, §3

A further data set has as its system Aggrecanase-1 mRNA. Description: Real time PCR, fold induction of Aggrecanase-1 mRNA in human articular chondrocytes. It counts as cell-based. The following applies: chondrocytes from one OA patient. Here is the method: (§4) Chondrocytes were isolated from 2 normal and 2 OA patents. Cells alone or those over expressing the dominant negative form of Akt (retroviral mediated gene transfer) were treated with IL-1 beta, OSM or IL-1 beta+OSM with and without the PI3K inhibitor LY294002. RNA was isolated and the levels of Agg-1, Col-3 mRNA were measured by real time PCR. All treatments in four different donors were done in duplicate.
(§5) Total RNA was isolated from pooled duplicate 96-well plates using Qiagen RNeasy 96 kit (Qiagen, Valencia, Calif.) according to the manufacturer's instructions. The optional on-column Dnase I digestion was employed to eliminate contaminating genomic DNA. First strand cDNA was synthesized using random primers with the High-Capacity cDNA Archive kit (PE Applied Biosystems, Foster City, Calif.) in a 100 ul reaction volume.
(§6) Real time PCR was performed in a 384-well format on the ABI Prism 7900HT Sequence Detection System (Applied Biosystems, Foster City, Calif.) using SYBR Green PCR Master Mix (Applied Biosystems, Foster City, Calif.). The 20 ul reaction contained 5 ul cDNA, 200 nM forward and reverse primers, and SYBR Green PCR Master Mix. The default cycling program (95° C. for 10′ and 40 cycles of 95° C., 15″, 60° C., 1′) was followed by a slow ramping step by which a melting curve is generated to confirm the specificity of the PCR product and the absence of primer dimers.
(§7) Amplification of GAPDH was used to standardize the amount of sample cDNA added to the reaction. Changes in gene expression were calculated using the Comparative Ct method which makes use of a calibrator sample. This is the sample with which all others will be compared and whose value is therefore set to 1. All other values are therefore expressed relative to the calibrator. The retroviral vector containing no cDNA insert represents the calibrator sample. The amount of target, relative to the calibrator is calculated according to the formula 2^□□CT as outlined in ABI User Bulletin #2 (PE Applied Biosystems, Foster City, Calif.).

Data set [5] relates to Collagenase-3 (MMP-13) mRNA. Description: Real time PCR, fold induction of Collagenase-3 (MMP-13) mRNA in human articular chondrocytes. In kind it is cell-based. The following applies: chondrocytes from one OA patient. The protocol: as §4, §5, §6, §7
Data set [6] deals with Collagenase-3 protein secretion. Description: ELISA for COL-3 protein secretion in chondrocyte supernatants. In kind it is cell-based, human. Conditions: for Collagenase-3 protein in supernatant: 24 hr, control 2491 ± 147. The protocol: ELISA for COL-3—Chondrocyte culture cells are incubated in serum free media (DMEM) overnight, and then incubated for 1 hour in fresh serum free media without or with (50 ng/ml) PDGF-BB (Invitrogen-Life Technologies, Carlsbad, Calif.) is added to each well and incubated for an additional 24 hours. Cell culture supernatants are collected and the levels of COL-3 protein are determined for each treatment using Amersham (Piscataway, N.J.) human collagenase-3 ELISA. FIG. 5 depicts the ELISA of COL-3 protein secretion and inhibition by LY249002. Chondrocyte cells isolated as described above are incubated in serum free media overnight, and then incubated for 1 hour in fresh serum free medium (DMEM) with or without LY294002. Then 50 ng/ml PDGF-BB (Sigma, St. Louis, Mo.) is added to each well and incubated for an additional 24 hours. Chondrocyte cell culture supernatants are collected and the levels of COL-3 protein are determined for each treatment using the commercially available Amersham (Piscataway, N.J.) human collagenase-3 ELISA based assay.

Where [7] appears, read: PDGF 50 ng/ml + LY294002 20 μM, listed as LY2490002.
The mark [8] stands for this setting: inhibitor + IL-1 + Oncostatin M.
[9] abbreviates: inhibitor + IL-1 + Oncostatin M, listed as LY 294002.

For the molecule platelet-derived growth factor [PDGF], the “Anti Phospho-PKB western blot signal” value in data set [1] (PDGF 50 ng/ml alone) is 17940 and 22369. Further, the “Anti-Phospho-FKHRL1 western blot signal” value in data set [2] was 15838 and 16507. For the same molecule, the “Aggrecanase-1 gene expression (PCR amplicon gel signal)” value in data set [3] (PDGF 50 ng/ml alone) was 418. Also, the “Collagenase-3 gene expression (PCR amplicon gel signal)” value in data set [4] (PDGF 50 ng/ml alone) is on record as 1242. Moreover, the “Fold Induction of mRNA, Aggrecanase-1” value in the data set on Aggrecanase-1 mRNA (inducer alone, untreated 2) was 10 fold. In addition, the “Fold Induction of mRNA, Collagenase-3” value in data set [5] (inducer alone, untreated 1) came out at 36 fold.

With oncostatin M, in the data set on Aggrecanase-1 mRNA (inducer alone, untreated 2), the “Fold Induction of mRNA, Aggrecanase-1” value was found to be 221 fold. The “Fold Induction of mRNA, Collagenase-3” value in data set [5] (inducer alone, untreated 1) is 63 fold.

Turning to `O=c1cc(N2CCOCC2)oc2c(-c3ccccc3)cccc12` [LY294002, 2-(4-morpholinyl)-8-phenyl-4H-1-benzopyran-4-one], the “Anti Phospho-PKB western blot signal” value was 4706 and 3408 in data set [1] (PDGF 50 ng/ml + LY294002 20 μM); “decreases PDGF induced activation of PKB” in data set [1] (setting [7]). The “Aggrecanase-1 gene expression (PCR amplicon gel signal)” value is 0 in data set [3] (PDGF 50 ng/ml + LY294002 20 μM); “inhibits the downstream production of mRNA for AGG-1 and COL-3” in data set [3] (setting [7]). For the same molecule, the “Collagenase-3 gene expression (PCR amplicon gel signal)” value in data set [4] (PDGF 50 ng/ml + LY294002 20 μM) was 302; in data set [4] (setting [7]), “inhibits the downstream production of mRNA for AGG-1 and COL-3”. The “Collagenase-3 protein in supernatant” value stood at 2374 ± 58 pg/mL in data set [6] (1 μM LY294002 in the presence of PDGF 50 ng/ml), 1555 ± 104 pg/mL in data set [6] (5 μM LY294002 in the presence of PDGF 50 ng/ml) and 342 ± 8 pg/mL in data set [6] (20 μM LY294002 in the presence of PDGF 50 ng/ml). Also, the “Secretion of COL-3 protein (in words)” value in data set [6] (PDGF stimulated primary human chondrocytes) is on record as “inhibits secretion of COL-3 protein”. Moreover, the “Fold Induction of mRNA, Aggrecanase-1” value in the data set with Aggrecanase-1 mRNA (setting [8]) is “blocked”; with Aggrecanase-1 mRNA (setting [9]), 49 fold; with Aggrecanase-1 mRNA (inhibitor + IL-1), 22 fold; with Aggrecanase-1 mRNA (inhibitor + Oncostatin M) it was 45 fold; in the data set on Aggrecanase-1 mRNA (inhibitor + PDGF), 2 fold. Also, the “Fold Induction of mRNA, Collagenase-3” value in data set [5] (setting [8]) is on record as “blocked”; in data set [5] (setting [9]), 19 fold; in data set [5] (inhibitor + IL-1), 5 fold; in data set [5] (inhibitor + Oncostatin M), 10 fold; in data set [5] (inhibitor + PDGF), 2 fold.

With Interleukin-1 [IL-1], in the data set with Aggrecanase-1 mRNA (inducer alone, untreated 2), the “Fold Induction of mRNA, Aggrecanase-1” value is on record as 180 fold. For the same molecule, the “Fold Induction of mRNA, Collagenase-3” value in data set [5] (inducer alone, untreated 1) came out at 150 fold.
